Reference: paper PMC12040169 (PLOS Biology, 2025)

Experiment: in vitro
Details: human, hela cells, % viability

SMILES | viability at 28.5 h, 10 µM [%]
O=C(Cc1ccc(F)cc1)N1CCC(c2cc3cnccc3[nH]2)CC1 [CBK283454] | 85.7
CC(NC(=O)Cc1cccc(F)c1)c1nc2cccnc2n1C(C)C (centres unmarked) [CBK283831] | 98.5
Cn1nc(-c2ccc(S(=O)(=O)NCCN3CCNC3=O)s2)cc1C(F)(F)F [CBK062610] | 91.6
CCn1cncc1CN1CCCC(c2cc3cccnc3[nH]2)C1 (centres unmarked) [CBK284993] | 98.5
O=c1[nH]c(=O)c2cc(S(=O)(=O)NC(c3ccccc3)c3ccccc3)ccc2[nH]1 [CBK286375] | 89.4
COc1ccccc1CC(CC(=O)O)C(=O)O (centres unmarked) [CBK261508] | 91.6
COC(=O)c1cc(NS(=O)(=O)c2cc(Cl)ccc2Cl)cc(C(=O)OC)c1 [CBK077853] | 105
CCOC(=O)CSc1nc(=O)cc(N)n1Cc1ccc(F)cc1 [CBK269938] | 91.1
CC(C)(C)OC(=O)Nc1ccc(Nc2cc(-c3ccc(F)c(F)c3)ncn2)cc1 [CBK091143] | 90.1
COc1cc(C2C(C(=O)c3ccc(C)o3)=C(O)C(=O)N2Cc2cccnc2)cc(OC)c1OC (centres unmarked) [CBK264933] | 110
CCn1nc(CO)c2c1CCN(CC(=O)NCc1cccs1)C2 [CBK307638] | 92.8
OCC(O)/C=N/Nc1nc(N2CCCCC2)nc(N2CCCCC2)n1 (centres unmarked) [CBK019423] | 107
Cc1ccc(-n2c(SCC(=O)N3CCc4ccccc43)nnc2-c2ccccc2O)c(C)c1 [CBK268793] | 108
COc1ccc([C@@]23CC[C@@H](NC(=O)Nc4cccc(C(F)(F)F)c4F)C[C@@H]2CN(C)C3)cc1OC [CBK063195A] | 98.5
Cc1cc(CNC(=O)C2CC(=O)N(Cc3ccccn3)C2)ccc1F (centres unmarked) [CBK305557] | 77.3
COc1cc2nc(S)n(CCc3ccc(S(N)(=O)=O)cc3)c(=O)c2cc1OC [CBK268457] | 84.4
O=C1COc2ccccc2C/C=C/C[C@H]2CNCC[C@H]2N1 [CBK292033] | 101
COc1ccc2nc(Nc3nc(=O)cc(CSc4nc5ccccc5s4)[nH]3)nc(C)c2c1 [CBK264854] | 110
Cc1ccc(SCc2ccc(C(=O)NCc3cccnc3)cc2)cc1 [CBK268063] | 96.9
O=C(O)CSc1nccn1Cc1ccccc1 [CBK262215] | 103
CC(=O)N1CCC2(C/C=C/C[C@H]3CN(CCCc4ccccc4)CC[C@H]3NC(=O)CNC2=O)CC1 [CBK292140] | 90.9
CS(=O)(=O)N(CC(=O)Nc1ccc2c(c1)OCO2)c1ccc(Oc2ccccc2)cc1 [CBK263989] | 91.5

SMILES | viability at 28.5 h, 10 µM [%]
CC(C)CNC(=O)N(CCc1ccccc1)Cc1ccccc1 [CBK155339] | 93.8
COC(=O)CC1(C)C(=O)CCC2(C)C1=CCc1ccccc12 (centres unmarked) [CBK006547] | 105
COc1ccc(S(=O)(=O)Nc2cccc(C(=O)O)c2)cc1C(=O)O [CBK264069] | 86.8
COCc1nnc(NS(=O)(=O)c2ccc(C)cc2)s1 [CBK045523] | 86.7
CC(C)(C)c1cc(C(=O)N/N=C/c2ccc(O)c([N+](=O)[O-])c2)[nH]n1 [CBK263844] | 98.4
O=C(C(Cc1ccccc1)c1ccccc1)N1CCC2(CCN(CCCCOc3ccccc3)C2)C1 (centres unmarked) [CBK160643] | 101
O=C(O)COc1ccc(NC(=O)c2ccc3c(c2)C(=O)N(C2CCCCC2)C3=O)cc1 [CBK266009] | 92.1
CCCCC(=O)N(C)c1c(CC)nc2c(OCc3ccc(C#N)cc3)cccn12 [CBK147779] | 94.6
COc1cccc(C(=O)N2CCC(NC(=O)c3csc(-c4ccccc4)n3)CC2)c1 [CBK155030] | 90.4
CC(C)n1c(=O)n(CC(=O)N2CCCCCC2)c2cccnc21 [CBK283527] | 92.4
c1ccc(CNC2(Cc3cc(-c4ccccn4)on3)COC2)cc1 [CBK289643] | 87.9
c1ccc(-c2nccnc2NCc2ccco2)cc1 [CBK088642] | 94.3
Cc1ccnn1CCC(=O)NC1(c2ccc(F)cc2)CCCC1 [CBK283600] | 115
COc1ccc(C(=O)c2sc3nc(C)cc(C)c3c2N)cc1 [CBK115362] | 87.7
COc1ccc(NC(=O)c2ccc(-c3nnn[nH]3)cc2)cc1OC [CBK295138] | 97.7
C=CCNC(=O)CCc1nc(-c2cccc(OC)c2)no1 [CBK268981] | 99.2
CC1CCN(C(=O)C[C@@H]2O[C@H](CNC(=O)C3CC3)[C@@H](O)[C@H]2O)CC1 [CBK288926] | 92
CC(C)N1CC[C@@H]2[C@H]1C(=O)NC[C@H](CCC(=O)NCc1ccc(F)cc1)N2C [CBK289024] | 91.4
CC(C)N(C)CCOc1ncccc1OCCO [CBK039171] | 104
N=C(N)SCc1ccc(CSC(=N)N)cc1 [CBK278309C] | 84.5
CN(C)c1ccc(C(=O)Nc2nnc(C3=COCCO3)o2)cc1 [CBK287415] | 98.8
COc1cc(C)c(CN2CCN(S(=O)(=O)c3cc(C(=O)O)cs3)CC2)cc1OC [CBK297093] | 97.2

SMILES | viability at 28.5 h, 10 µM [%]
O=C1COc2ccccc2CCCC[C@@H]2CN(C(=O)CN3C(=O)CNC3=O)CC[C@H]2N1 [CBK292047] | 92.7
O=C(Nc1ccc(N2CCN(C(=O)c3ccco3)CC2)cc1)c1cc([N+](=O)[O-])ccc1N1CCOCC1 [CBK269052] | 91.6
Cc1ccc(S(=O)(=O)NCCNc2ccc([N+](=O)[O-])cc2C(F)(F)F)cc1 [CBK265140] | 90.6
O=C(NNS(=O)(=O)c1ccc([N+](=O)[O-])cc1)Nc1cccc(C(F)(F)F)c1 [CBK266871] | 105
Cc1ncc(CN2CCCC(O)(c3ccc(F)cc3)CC2)n1C (centres unmarked) [CBK284836] | 89.6
Clc1ccccc1-c1nnn(Cc2ccc(-c3nnn[nH]3)cc2)n1 [CBK267838] | 89.3
Cn1nc(-c2ccc(S(=O)(=O)Nc3nc(=O)[nH]cc3F)s2)cc1C(F)(F)F [CBK067574] | 96.8
O=C(Nc1nc2ccc(Br)cc2s1)C1CC1 [CBK026046] | 108
CSc1nnc(CC2CCN(C(=O)c3cccc(N)c3)CC2)n1C [CBK307339] | 77.8
N#Cc1ccc2nc([C@H]3CCN(C(=O)c4ccccc4)C3)[nH]c2c1 [CBK289379] | 92.4
COc1ccc(OC)c(NC(=O)C(C)Oc2ccccc2OC)c1 (centres unmarked) [CBK269766] | 85.3
COc1ccc(C(=O)NC(=S)Nc2ccc(O)c(-c3nc4cc(C)c(C)cc4o3)c2)cc1[N+](=O)[O-] [CBK264039] | 111
C=CCc1cc(C)cc(C)c1OCCN1CCN(C)CC1 [CBK269672C] | 101
COc1ccc(C2N(Cc3ccccc3)CCN2Cc2ccccc2)c(OC)c1OC [CBK265220] | 104
CCc1c(C)nc2ccccc2c1SCCC(=O)O [CBK116382C] | 118
CN1CCCCCC1c1nc(-c2ccccc2)nn1CCCO (centres unmarked) [CBK307653] | 95.9
CCC(=O)NC(c1ccc(C)cc1)c1cc([N+](=O)[O-])c2cccnc2c1O (centres unmarked) [CBK265048] | 121
Cc1cnc(NC(=O)Cc2ccc(F)cc2)s1 [CBK288249] | 99.9
Cc1cccnc1Nc1ccc(C2CCCCN2Cc2ccc3nccnc3c2)cn1 (centres unmarked) [CBK286133] | 89.8
N[C@@H](Cc1c[nH]c2ccccc12)C(=O)N1CC[C@H]2NC(=O)[C@@H](Cc3ccccc3)NC(=O)C3(C/C=C/C[C@@H]2C1)CCOCC3 [CBK292202] | 115
Cc1cccc(C)c1N1C(=O)c2ccccc2NC12C(=O)Nc1ccc([N+](=O)[O-])cc12 (centres unmarked) [CBK103749] | 80.6
Cc1nn(-c2ccccc2)c2c1C(c1cnn(C)c1)SCC(=O)N2 (centres unmarked) [CBK287896] | 114

SMILES | viability at 28.5 h, 10 µM [%]
Cc1csc(C(Cc2ccsc2)NC(=O)c2c(C)noc2C)n1 (centres unmarked) [CBK285045] | 102
CCn1cc(CN(C)C(=S)Nc2cccc(C(C)=O)c2)c(C)n1 [CBK267040] | 106
O=C1c2ccc(Oc3ccc4c(c3)C(=O)N(c3ccccn3)C4=O)cc2C(=O)N1c1ccccn1 [CBK261202] | 99.3
CN1Cc2ccccc2OC2(CCCN(C(=O)C3CC3)CC2)C1 (centres unmarked) [CBK285131] | 110
Cc1cc(S(=O)(=O)NCc2ccccc2-n2ccnc2)ccc1F [CBK281477] | 92.1
Cc1cccc(C)c1-c1cn2ccnc2c(N2CCN(c3ccccn3)CC2)n1 [CBK037389] | 89
CC1CCN(S(=O)(=O)c2ccc(C(=O)N[C@@H](C)C(=O)O)cc2)CC1 [CBK297106] | 96.6
CCCc1n[nH]c(=S)n1CC(=O)Nc1cc(NC(=O)C2CC2)ccc1C [CBK297740] | 106
Cc1cc(C(=O)O)ccc1-c1ccc(/C=C/c2[nH]c(=O)[nH]c(=O)c2[N+](=O)[O-])o1 [CBK266998] | 97.3
Cc1ccc(C(=O)n2c(=S)nc3ccccn32)cc1 [CBK025729] | 91.9
CC1(C)CC(=O)C=C(C(=O)Nc2c(F)cc(F)cc2OC2CCNCC2)O1 [CBK050332T] | 110
Cc1ccsc1C(=O)N1CCC(c2nn(C)c3ncccc23)CC1 [CBK285102] | 96.6
Cn1cnc2cc(-c3nnn[nH]3)ccc21 [CBK306265] | 90.2
O=C(Nc1ccccc1C(=O)O)c1ccccc1O [CBK012116] | 89
Cc1nc2cc(OCc3ccc(Cn4ccn(C(=O)CCC5CCCC5)c4=O)cc3)ccc2s1 [CBK106641] | 115
O=C(O)c1cccc(NC(=O)c2ccc(CSc3ccc(Br)cc3)cc2)c1 [CBK263226] | 98.3
COc1cc(Nc2cncc(-c3ccc(N)cc3)n2)cc(OC)c1OC [CBK065642] | 56.2
Cc1cc(CC(=O)N2CCN(C(=O)c3ccco3)CC2)on1 [CBK144465] | 96.3
CC(C)(O)C1(C)OC(NC2C3CC4CC(C3)CC2C4)=NC1=O (centres unmarked) [CBK126370] | 91.2
Fc1ccc(-c2n[nH]c(=S)n2CCCN2CCOCC2)cc1 [CBK267127] | 100
